Numbers after ± are expanded uncertainties.
How the values were obtained:
[1] = 101 kPa, Liquid; for speed of sound: Sing-around technique in a fixed-path interferometer; for mass density: Vibrating tube method
[2] = refractive index (Na D-line) (dimensionless); settings: 298.15 K; 101.33 kPa; Liquid; Standard Abbe refractometry
[3] = xn = mol fraction of the nth substance listed; settings: 101 kPa, Liquid; for mass density: Vibrating tube method; for speed of sound: fixed-path interferometer

Cc1ccccc1 [toluene]
[1]
Settings	mass density [kg/m3]	speed of sound [m/s]
298.15 K	862.19 ± 0.13	1305.4 ± 1.2
308.15 K	852.88 ± 0.14	1262.7 ± 1.2
318.15 K	843.6 ± 0.14	1220.4 ± 1.2
328.15 K	834.29 ± 0.14	1178.6 ± 1.2

Settings	refractive index
[2]	1.49393 ± 0.00072

CC(C)CC(C)(C)C [2,2,4-trimethylpentane] + Cc1ccccc1
[3]
Settings	mass density, 298.15 K [kg/m3]	mass density, 308.15 K [kg/m3]	mass density, 318.15 K [kg/m3]	mass density, 328.15 K [kg/m3]	speed of sound, 298.15 K [m/s]	speed of sound, 308.15 K [m/s]	speed of sound, 318.15 K [m/s]	speed of sound, 328.15 K [m/s]
x1 = 0.2055	811.87 ± 0.14	802.88 ± 0.15	793.92 ± 0.15	784.96 ± 0.15	1235.8 ± 1.2	1193.6 ± 1.2	1151.9 ± 1.2	1110.8 ± 1.2
x1 = 0.403	772.32 ± 0.15	763.58 ± 0.16	754.88 ± 0.16	746.18 ± 0.16	1184.2 ± 1.2	1142.3 ± 1.2	1100.9 ± 1.2	1060.1 ± 1.2
x1 = 0.6062	738.6 ± 0.16	730.06 ± 0.17	721.58 ± 0.17	713.11 ± 0.17	1142.4 ± 1.2	1100.5 ± 1.2	1059.3 ± 1.2	1018.7 ± 1.2
x1 = 0.8001	711.48 ± 0.17	703.11 ± 0.17	694.81 ± 0.18	686.51 ± 0.18	1110 ± 1.2	1068.4 ± 1.2	1027.2 ± 1.2	986.7 ± 1.2

CCCCO [butan-1-ol]
[1]
Settings	mass density [kg/m3]	speed of sound [m/s]
298.15 K	805.74 ± 0.15	1239.9 ± 1.2
308.15 K	798.07 ± 0.15	1206.6 ± 1.2
318.15 K	790.38 ± 0.15	1173.4 ± 1.2
328.15 K	782.58 ± 0.15	1140.4 ± 1.2

Settings	refractive index
[2]	1.39733 ± 0.00072

CC(C)CC(C)(C)C [2,2,4-trimethylpentane]
[1]
Settings	mass density [kg/m3]	speed of sound [m/s]
298.15 K	687.68 ± 0.18	1082.7 ± 1.2
308.15 K	679.45 ± 0.18	1041.1 ± 1.2
318.15 K	671.3 ± 0.18	1000.1 ± 1.2
328.15 K	663.17 ± 0.18	959.4 ± 1.2

Settings	refractive index
[2]	1.38901 ± 0.00072

Cc1ccccc1 [toluene] + CCCCO
[3], x1 = 1
Settings	mass density [kg/m3]	speed of sound [m/s]
298.15 K	862.19 ± 0.13	1305.4 ± 1.2
308.15 K	852.88 ± 0.14	1262.7 ± 1.2
318.15 K	843.6 ± 0.14	1220.4 ± 1.2
328.15 K	834.29 ± 0.14	1178.6 ± 1.2

CCCCO [butan-1-ol] + CC(C)CC(C)(C)C
[3], x2 = 0
Settings	mass density [kg/m3]	speed of sound [m/s]
298.15 K	805.74 ± 0.15	1239.9 ± 1.2
308.15 K	798.07 ± 0.15	1206.6 ± 1.2
318.15 K	790.38 ± 0.15	1173.4 ± 1.2
328.15 K	782.58 ± 0.15	1140.4 ± 1.2

— the NIST ThermoML archive (doi:10.1016/j.jct.2013.05.009)
